Reference: PubChem BioAssay (NCI)
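Five compound concentrations were applied to cells in 96-well plates for 48 hours; endpoints were derived by simple linear interpolation of the resulting dose-response curve. The concentration for 50% growth inhibition is given as GI50. TGI is the concentration that stops growth completely.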

Legend:
Assay in all cases: NCI anticancer screen, dose series, 48 h
786-0 renal = tested on: 786-0 renal
A498 renal = tested on: A498 renal
A549 NSCLC = tested on: A549 NSCLC
ACHN renal = tested on: ACHN renal
BT-549 breast = tested on: BT-549 breast
CAKI-1 renal = tested on: CAKI-1 renal
CCRF-CEM leukemia = tested on: CCRF-CEM leukemia
COLO 205 colon = tested on: COLO 205 colon
DU-145 prostate = tested on: DU-145 prostate
EKVX NSCLC = tested on: EKVX NSCLC
HCC-2998 colon = tested on: HCC-2998 colon
HCT-116 colon = tested on: HCT-116 colon
HCT-15 colon = tested on: HCT-15 colon
HL-60(TB) leukemia = tested on: HL-60(TB) leukemia
HOP-62 NSCLC = tested on: HOP-62 NSCLC
HOP-92 NSCLC = tested on: HOP-92 NSCLC
HS 578T breast = tested on: HS 578T breast
HT29 colon = tested on: HT29 colon
IGROV1 ovarian = tested on: IGROV1 ovarian
K-562 leukemia = tested on: K-562 leukemia
KM12 colon = tested on: KM12 colon
LOX IMVI melanoma = tested on: LOX IMVI melanoma
M14 melanoma = tested on: M14 melanoma
MALME-3M melanoma = tested on: MALME-3M melanoma
MCF7 breast = tested on: MCF7 breast
MDA-MB-231 breast = tested on: MDA-MB-231 breast
MDA-MB-435 = tested on: MDA-MB-435
MOLT-4 leukemia = tested on: MOLT-4 leukemia
NCI-H226 lung = tested on: NCI-H226 lung
NCI-H23 lung = tested on: NCI-H23 lung
NCI-H460 lung = tested on: NCI-H460 lung
NCI-H522 lung = tested on: NCI-H522 lung
NCI/ADR-RES ovarian = tested on: NCI/ADR-RES ovarian
OVCAR-3 ovarian = tested on: OVCAR-3 ovarian
OVCAR-4 ovarian = tested on: OVCAR-4 ovarian
OVCAR-5 ovarian = tested on: OVCAR-5 ovarian
OVCAR-8 ovarian = tested on: OVCAR-8 ovarian
PC-3 prostate = tested on: PC-3 prostate
RPMI-8226 leukemia = tested on: RPMI-8226 leukemia
RXF 393 renal = tested on: RXF 393 renal
SF-268 CNS = tested on: SF-268 CNS
SF-295 CNS = tested on: SF-295 CNS
SF-539 CNS = tested on: SF-539 CNS
SK-MEL-2 melanoma = tested on: SK-MEL-2 melanoma
SK-MEL-28 melanoma = tested on: SK-MEL-28 melanoma
SK-MEL-5 melanoma = tested on: SK-MEL-5 melanoma
SK-OV-3 ovarian = tested on: SK-OV-3 ovarian
SN12C renal = tested on: SN12C renal
SNB-19 CNS = tested on: SNB-19 CNS
SNB-75 CNS = tested on: SNB-75 CNS
SR leukemia = tested on: SR leukemia
SW-620 colon = tested on: SW-620 colon
T-47D breast = tested on: T-47D breast
TK-10 renal = tested on: TK-10 renal
U251 CNS = tested on: U251 CNS
UACC-257 melanoma = tested on: UACC-257 melanoma
UACC-62 melanoma = tested on: UACC-62 melanoma
UO-31 renal = tested on: UO-31 renal

NC(=O)c1cccc(Nc2nccc(Nc3cccc(F)c3)n2)c1
GI50 (786-0 renal): 9.15 µM
TGI (786-0 renal): > 25 µM
GI50 (A498 renal): 4.3 µM
TGI (A498 renal): 16 µM
GI50 (A549 NSCLC): 7.45 µM
TGI (A549 NSCLC): > 25 µM
GI50 (ACHN renal): 8.83 µM
TGI (ACHN renal): > 25 µM
GI50 (BT-549 breast): 10.3 µM
TGI (BT-549 breast): > 25 µM
GI50 (CAKI-1 renal): 7.24 µM
TGI (CAKI-1 renal): > 25 µM
GI50 (CCRF-CEM leukemia): 8.54 µM
TGI (CCRF-CEM leukemia): > 25 µM
GI50 (COLO 205 colon): 6.73 µM
TGI (COLO 205 colon): > 17.9 µM
GI50 (DU-145 prostate): 8.1 µM
TGI (DU-145 prostate): > 25 µM
GI50 (EKVX NSCLC): 12.3 µM
TGI (EKVX NSCLC): > 25 µM
GI50 (HCC-2998 colon): 18.5 µM
TGI (HCC-2998 colon): > 25 µM
GI50 (HCT-116 colon): 9.1 µM
TGI (HCT-116 colon): > 25 µM
GI50 (HCT-15 colon): 7.69 µM
TGI (HCT-15 colon): > 25 µM
GI50 (HL-60(TB) leukemia): 7.52 µM
TGI (HL-60(TB) leukemia): 20.5 µM
GI50 (HOP-62 NSCLC): 8.24 µM
TGI (HOP-62 NSCLC): > 22.5 µM
GI50 (HOP-92 NSCLC): 2.66 µM
TGI (HOP-92 NSCLC): 18.1 µM
GI50 (HS 578T breast): 6.23 µM
TGI (HS 578T breast): > 25 µM
GI50 (HT29 colon): 6.98 µM
TGI (HT29 colon): > 25 µM
GI50 (IGROV1 ovarian): 6.21 µM
TGI (IGROV1 ovarian): > 21.1 µM
GI50 (K-562 leukemia): 8.13 µM
TGI (K-562 leukemia): > 25 µM
GI50 (KM12 colon): 7.27 µM
TGI (KM12 colon): > 25 µM
GI50 (LOX IMVI melanoma): 7.66 µM
TGI (LOX IMVI melanoma): > 25 µM
GI50 (M14 melanoma): 8.92 µM
TGI (M14 melanoma): > 25 µM
GI50 (MALME-3M melanoma): 10.3 µM
TGI (MALME-3M melanoma): > 25 µM
GI50 (MCF7 breast): 11 µM
TGI (MCF7 breast): > 25 µM
GI50 (MDA-MB-231 breast): 17.5 µM
TGI (MDA-MB-231 breast): > 25 µM
GI50 (MDA-MB-435): 6.15 µM
TGI (MDA-MB-435): > 25 µM
GI50 (MOLT-4 leukemia): 13.1 µM
TGI (MOLT-4 leukemia): > 25 µM
GI50 (NCI-H226 lung): 4.74 µM
TGI (NCI-H226 lung): > 21.7 µM
GI50 (NCI-H23 lung): 10.6 µM
TGI (NCI-H23 lung): > 25 µM
GI50 (NCI-H460 lung): 7 µM
TGI (NCI-H460 lung): > 25 µM
GI50 (NCI-H522 lung): 5.82 µM
TGI (NCI-H522 lung): > 23.8 µM
GI50 (NCI/ADR-RES ovarian): 8.75 µM
TGI (NCI/ADR-RES ovarian): > 25 µM
GI50 (OVCAR-3 ovarian): 10 µM
TGI (OVCAR-3 ovarian): > 25 µM
GI50 (OVCAR-4 ovarian): 4.37 µM
TGI (OVCAR-4 ovarian): > 25 µM
GI50 (OVCAR-5 ovarian): 8.07 µM
TGI (OVCAR-5 ovarian): > 25 µM
GI50 (OVCAR-8 ovarian): 9.49 µM
TGI (OVCAR-8 ovarian): > 25 µM
GI50 (PC-3 prostate): 8.39 µM
TGI (PC-3 prostate): > 25 µM
GI50 (RPMI-8226 leukemia): 11.4 µM
TGI (RPMI-8226 leukemia): > 25 µM
GI50 (RXF 393 renal): 3.72 µM
TGI (RXF 393 renal): 14.6 µM
GI50 (SF-268 CNS): 11.7 µM
TGI (SF-268 CNS): > 25 µM
GI50 (SF-295 CNS): 9.82 µM
TGI (SF-295 CNS): > 25 µM
GI50 (SF-539 CNS): 11.3 µM
TGI (SF-539 CNS): > 25 µM
GI50 (SK-MEL-2 melanoma): 7.37 µM
TGI (SK-MEL-2 melanoma): 24.4 µM
GI50 (SK-MEL-28 melanoma): 8.71 µM
TGI (SK-MEL-28 melanoma): > 25 µM
GI50 (SK-MEL-5 melanoma): 4.9 µM
TGI (SK-MEL-5 melanoma): > 16.3 µM
GI50 (SK-OV-3 ovarian): 5.85 µM
TGI (SK-OV-3 ovarian): 17.2 µM
GI50 (SN12C renal): 7.98 µM
TGI (SN12C renal): > 25 µM
GI50 (SNB-19 CNS): 18.6 µM
TGI (SNB-19 CNS): > 25 µM
GI50 (SNB-75 CNS): 6.22 µM
TGI (SNB-75 CNS): > 23.4 µM
GI50 (SR leukemia): 7.1 µM
TGI (SR leukemia): > 25 µM
GI50 (SW-620 colon): 7.11 µM
TGI (SW-620 colon): > 24 µM
GI50 (T-47D breast): 4.38 µM
TGI (T-47D breast): 16.5 µM
GI50 (TK-10 renal): 6.51 µM
TGI (TK-10 renal): > 23.7 µM
GI50 (U251 CNS): 14.3 µM
TGI (U251 CNS): > 25 µM
GI50 (UACC-257 melanoma): 12.2 µM
TGI (UACC-257 melanoma): > 25 µM
GI50 (UACC-62 melanoma): 5.66 µM
TGI (UACC-62 melanoma): 24.6 µM
GI50 (UO-31 renal): 4.49 µM
TGI (UO-31 renal): 22.3 µM
